# Measurements published in patent publication US9926282B2, “Phthalazinones and isoquinolinones as rock inhibitors” (BRISTOL-MYERS SQUIBB COMPANY, priority 2013, dated 2018).
# Where two headings read alike, the source gives them in different places.
# What was measured:
# [1] = biological target: ROCK1 (Homo sapiens (Human), UniProt Q13464); assay: ROCK assay (LABCHIP peptide phosphorylation), ROCK1; assay type: biochemical
# [2] = biological target: ROCK2 (Homo sapiens (Human), UniProt O75116); assay: ROCK assay (LABCHIP peptide phosphorylation), ROCK2; assay type: biochemical; settings: 5 μM ATP, 1.5 μM peptide substrate
# [3] = 5 μM ATP, 1.5 μM peptide substrate, read-out: ROCK1 IC50
# ROCK1, sequence (Q13464 whole entry, species assumed): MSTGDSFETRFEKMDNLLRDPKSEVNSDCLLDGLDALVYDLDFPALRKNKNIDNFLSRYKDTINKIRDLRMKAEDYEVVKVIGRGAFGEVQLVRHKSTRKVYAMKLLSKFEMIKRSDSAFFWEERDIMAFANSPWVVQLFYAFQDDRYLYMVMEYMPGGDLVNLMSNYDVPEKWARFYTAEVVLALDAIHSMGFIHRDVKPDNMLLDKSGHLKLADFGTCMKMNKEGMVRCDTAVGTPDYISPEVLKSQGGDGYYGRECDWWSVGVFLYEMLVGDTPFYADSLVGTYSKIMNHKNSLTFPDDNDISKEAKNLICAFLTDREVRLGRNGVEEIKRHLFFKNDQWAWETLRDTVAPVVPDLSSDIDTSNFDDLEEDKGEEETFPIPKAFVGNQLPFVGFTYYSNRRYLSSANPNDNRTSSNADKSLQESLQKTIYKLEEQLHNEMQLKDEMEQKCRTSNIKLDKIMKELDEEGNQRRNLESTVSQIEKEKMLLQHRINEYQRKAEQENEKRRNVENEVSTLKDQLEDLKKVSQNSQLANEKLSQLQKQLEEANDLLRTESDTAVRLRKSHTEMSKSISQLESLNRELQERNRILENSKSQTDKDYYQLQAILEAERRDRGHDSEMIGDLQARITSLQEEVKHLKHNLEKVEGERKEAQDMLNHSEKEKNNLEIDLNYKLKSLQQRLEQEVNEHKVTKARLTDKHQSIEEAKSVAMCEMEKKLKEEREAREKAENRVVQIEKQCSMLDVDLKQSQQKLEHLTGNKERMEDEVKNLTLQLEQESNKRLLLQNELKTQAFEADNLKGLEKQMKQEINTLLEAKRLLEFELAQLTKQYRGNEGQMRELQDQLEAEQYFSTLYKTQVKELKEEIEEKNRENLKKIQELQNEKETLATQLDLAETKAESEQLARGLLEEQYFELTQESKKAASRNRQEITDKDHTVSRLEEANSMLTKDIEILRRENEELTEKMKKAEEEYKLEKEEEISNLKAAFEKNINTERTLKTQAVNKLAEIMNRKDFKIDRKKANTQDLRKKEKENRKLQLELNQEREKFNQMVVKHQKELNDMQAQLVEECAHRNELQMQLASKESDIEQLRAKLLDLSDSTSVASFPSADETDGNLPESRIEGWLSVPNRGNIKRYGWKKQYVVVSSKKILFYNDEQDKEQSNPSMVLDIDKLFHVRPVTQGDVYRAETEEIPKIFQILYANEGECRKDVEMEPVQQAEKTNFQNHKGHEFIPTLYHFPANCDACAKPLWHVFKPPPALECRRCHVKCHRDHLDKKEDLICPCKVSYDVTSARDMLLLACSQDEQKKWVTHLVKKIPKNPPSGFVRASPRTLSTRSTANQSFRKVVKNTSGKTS
# ROCK2, sequence (O75116 whole entry, species assumed): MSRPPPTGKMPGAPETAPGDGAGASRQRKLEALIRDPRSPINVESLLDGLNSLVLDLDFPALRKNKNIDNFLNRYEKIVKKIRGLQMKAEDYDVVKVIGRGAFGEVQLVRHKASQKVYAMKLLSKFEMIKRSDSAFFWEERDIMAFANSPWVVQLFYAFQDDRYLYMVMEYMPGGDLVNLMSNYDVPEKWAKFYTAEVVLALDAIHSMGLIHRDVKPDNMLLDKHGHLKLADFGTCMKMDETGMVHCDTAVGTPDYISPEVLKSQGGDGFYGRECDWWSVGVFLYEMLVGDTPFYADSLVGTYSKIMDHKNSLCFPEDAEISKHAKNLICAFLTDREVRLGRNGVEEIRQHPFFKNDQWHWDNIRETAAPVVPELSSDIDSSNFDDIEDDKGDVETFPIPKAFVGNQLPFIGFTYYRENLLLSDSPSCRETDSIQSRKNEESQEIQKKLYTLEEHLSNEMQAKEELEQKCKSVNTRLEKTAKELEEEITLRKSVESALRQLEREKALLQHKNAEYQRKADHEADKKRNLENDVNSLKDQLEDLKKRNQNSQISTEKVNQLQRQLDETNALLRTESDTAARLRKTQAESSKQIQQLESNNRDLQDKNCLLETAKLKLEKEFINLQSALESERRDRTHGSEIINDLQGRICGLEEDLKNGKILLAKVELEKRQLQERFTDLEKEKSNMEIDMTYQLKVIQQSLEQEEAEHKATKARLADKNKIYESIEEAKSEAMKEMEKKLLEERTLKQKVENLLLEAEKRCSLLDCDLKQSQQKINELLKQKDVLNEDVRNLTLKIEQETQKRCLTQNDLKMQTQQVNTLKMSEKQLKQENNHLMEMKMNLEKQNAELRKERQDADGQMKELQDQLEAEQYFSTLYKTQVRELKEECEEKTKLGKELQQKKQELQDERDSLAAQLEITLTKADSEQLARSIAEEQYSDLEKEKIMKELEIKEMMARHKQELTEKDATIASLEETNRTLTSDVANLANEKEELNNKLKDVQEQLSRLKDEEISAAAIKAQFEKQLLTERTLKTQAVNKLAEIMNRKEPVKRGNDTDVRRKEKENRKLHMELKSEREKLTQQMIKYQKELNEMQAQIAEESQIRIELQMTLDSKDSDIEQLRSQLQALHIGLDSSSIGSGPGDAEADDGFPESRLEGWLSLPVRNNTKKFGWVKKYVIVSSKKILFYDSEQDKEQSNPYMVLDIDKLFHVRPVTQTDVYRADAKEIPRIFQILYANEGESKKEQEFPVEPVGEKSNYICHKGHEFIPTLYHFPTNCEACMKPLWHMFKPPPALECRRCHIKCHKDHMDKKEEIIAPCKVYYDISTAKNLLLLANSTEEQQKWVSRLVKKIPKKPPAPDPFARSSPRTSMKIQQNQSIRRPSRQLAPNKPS
"IC50 [1, 3]",IC50 [2],SMILES,IC50 [1]
101 to 1000 nM,0.1 to 100 nM,"O=C(Nc1ccc(-c2n[nH]c(=O)c3ccccc23)cc1)c1ccc(N2CCOCC2)cc1 [Example 63, 4-(morpholin-4-yl)-N-[4-(4-oxo-3,4-dihydrophthalazin-1-yl)phenyl]benzamide]",–
101 to 1000 nM,0.1 to 100 nM,"CN1CCN(c2ccc(C(=O)Nc3ccc(-c4n[nH]c(=O)c5ccccc45)cc3)cc2)CC1 [Example 64, 4-(4-methylpiperazin-1-yl)-N-[4-(4-oxo-3,4-dihydrophthalazin-1-yl)phenyl]benzamide]",–
0.1 to 100 nM,0.1 to 100 nM,"O=C(Nc1ccc(-c2n[nH]c(=O)c3ccccc23)cc1)c1ccc(-n2ccnc2)cc1 [Example 65, 4-(1H-imidazol-1-yl)-N-[4-(4-oxo-3,4-dihydrophthalazin-1-yl)phenyl]benzamide]",–
0.1 to 100 nM,0.1 to 100 nM,"CN(C)c1cccc(C(=O)Nc2ccc(-c3n[nH]c(=O)c4ccccc34)cc2)c1 [Example 66, 3-(dimethylamino)-N-[4-(4-oxo-3,4-dihydrophthalazin-1-yl)phenyl]benzamide]",–
0.1 to 100 nM,0.1 to 100 nM,"O=c1[nH]nc(-c2ccc(Nc3nc4ccccc4o3)cc2)c2ccccc12 [Example 75, 4-(4-(Benzo[d]oxazol-2-ylamino)phenyl)phthalazin-1(2H)-one]",–
101 to 1000 nM,0.1 to 100 nM,"O=c1[nH]nc(-c2ccc(Nc3ncc4ccccc4n3)cc2)c2ccccc12 [Example 78, 4-{4-[(Quinazolin-2-yl)amino]phenyl}-1,2-dihydrophthalazin-1-one]",–
0.1 to 100 nM,0.1 to 100 nM,"COc1ccc2c(c1)N(C(=O)Nc1ccc(-c3c[nH]c(=O)c4ccccc34)cc1)CC2 [Example 80, 6-Methoxy-N-(4-(1-oxo-1,2-dihydroisoquinolin-4-yl)phenyl)indoline-1-carboxamide]",–
0.1 to 100 nM,0.1 to 100 nM,"O=c1[nH]nc(-c2ccc(Nc3nncc4ccccc34)cc2)c2ccccc12 [Example 85, 4-(4-(Phthalazin-1-ylamino)phenyl)phthalazin-1(2H)-one]",–
1000 to 50000 nM,0.1 to 100 nM,"O=c1[nH]nc(-c2ccc(Nc3ncc(-c4ccccc4)s3)cc2)c2ccccc12 [Example 88, 4-(4-((5-Phenylthiazol-2-yl)amino)phenyl)phthalazin-1(2H)-one]",–
101 to 1000 nM,0.1 to 100 nM,"O=C(Nc1ccc(-c2n[nH]c(=O)c3ccccc23)cc1)c1cn2ccccc2n1 [Example 89, N-[4-(4-oxo-3,4-dihydrophthalazin-1-yl)phenyl]imidazo[1,2-a]pyridine-2-carboxamide]",–
101 to 1000 nM,0.1 to 100 nM,"Cn1c(C(=O)Nc2ccc(-c3n[nH]c(=O)c4ccccc34)cc2)cc2ccccc21 [Example 90, 1-methyl-N-[4-(4-oxo-3,4-dihydrophthalazin-1-yl)phenyl]-1H-indole-2-carboxamide]",–
1000 to 50000 nM,0.1 to 100 nM,"O=C(Nc1ccc(-c2n[nH]c(=O)c3ccccc23)cc1)C1CCc2ccccc21 (centres unmarked) [Example 91, N-[4-(4-oxo-3,4-dihydrophthalazin-1-yl)phenyl]-2,3-dihydro-1H-indene-1-carboxamide]",–
101 to 1000 nM,0.1 to 100 nM,"O=C(Nc1ccc(-c2n[nH]c(=O)c3ccccc23)cc1)c1ccc(-n2cncn2)cc1 [Example 92, N-[4-(4-oxo-3,4-dihydrophthalazin-1-yl)phenyl]-4-(1H-1,2,4-triazol-1-yl)benzamide]",–
0.1 to 100 nM,0.1 to 100 nM,"O=C(Nc1ccc(-c2n[nH]c(=O)c3ccccc23)cc1)c1onc2ccccc12 [Example 93, N-[4-(4-oxo-3,4-dihydrophthalazin-1-yl)phenyl]-2,1-benzoxazole-3-carboxamide]",–
0.1 to 100 nM,0.1 to 100 nM,"CN(C)c1ccc2cc(C(=O)Nc3ccc(-c4n[nH]c(=O)c5ccccc45)cc3)[nH]c2c1 [Example 94, 6-(dimethylamino)-N-[4-(4-oxo-3,4-dihydrophthalazin-1-yl)phenyl]-1H-indole-2-carboxamide]",–
0.1 to 100 nM,0.1 to 100 nM,"Cc1nc2ccccn2c1C(=O)Nc1ccc(-c2n[nH]c(=O)c3ccccc23)cc1 [Example 95, 2-methyl-N-[4-(4-oxo-3,4-dihydrophthalazin-1-yl)phenyl]imidazo[1,2-a]pyridine-3-carboxamide]",–
101 to 1000 nM,0.1 to 100 nM,"Cn1c(C(=O)Nc2ccc(-c3n[nH]c(=O)c4ccccc34)cc2)cc2cc(Cl)ccc21 [Example 96, 5-chloro-1-methyl-N-[4-(4-oxo-3,4-dihydrophthalazin-1-yl)phenyl]-1H-indole-2-carboxamide]",–
101 to 1000 nM,101 to 1000 nM,"CC1(C)CCc2[nH]cc(C(=O)Nc3ccc(-c4n[nH]c(=O)c5ccccc45)cc3)c2C1=O [Example 97, 5,5-dimethyl-4-oxo-N-[4-(4-oxo-3,4-dihydrophthalazin-1-yl)phenyl]-4,5,6,7-tetrahydro-1H-indole-3-carboxamide]",–
0.1 to 100 nM,0.1 to 100 nM,"CCOc1ccc2oc(C)c(C(=O)Nc3ccc(-c4n[nH]c(=O)c5ccccc45)cc3)c2c1 [Example 100, 5-ethoxy-2-methyl-N-[4-(4-oxo-3,4-dihydrophthalazin-1-yl)phenyl]-1-benzofuran-3-carboxamide]",–
0.1 to 100 nM,0.1 to 100 nM,"Cc1ccc2[nH]c(C(=O)Nc3ccc(-c4n[nH]c(=O)c5ccccc45)cc3)cc2c1 [Example 101, 5-methyl-N-[4-(4-oxo-3,4-dihydrophthalazin-1-yl)phenyl]-1H-indole-2-carboxamide]",–
0.1 to 100 nM,0.1 to 100 nM,"O=C(Nc1ccc(-c2n[nH]c(=O)c3ccccc23)cc1)c1cnn2ccccc12 [Example 103, N-[4-(4-oxo-3,4-dihydrophthalazin-1-yl)phenyl]pyrazolo[1,5-a]pyridine-3-carboxamide]",–
0.1 to 100 nM,0.1 to 100 nM,"O=C(Nc1ccc(-c2n[nH]c(=O)c3ccccc23)cc1)c1cnc2ccccn12 [Example 104, N-[4-(4-oxo-3,4-dihydrophthalazin-1-yl)phenyl]imidazo[1,2-a]pyridine-3-carboxamide]",–
101 to 1000 nM,0.1 to 100 nM,"Cc1oc2ccc(OCc3ccccc3)cc2c1C(=O)Nc1ccc(-c2n[nH]c(=O)c3ccccc23)cc1 [Example 105, 5-(benzyloxy)-2-methyl-N-[4-(4-oxo-3,4-dihydrophthalazin-1-yl)phenyl]-1-benzofuran-3-carboxamide]",–

SMILES,"IC50 [1, 3]",IC50 [2],IC50 [1]
"O=C(Nc1ccc(-c2n[nH]c(=O)c3ccccc23)cc1)c1ccccc1 [Example 67, N-[4-(4-oxo-3,4-dihydrophthalazin-1-yl)phenyl]benzamide]",101 to 1000 nM,0.1 to 100 nM,–
"O=C(Oc1ccc(-c2n[nH]c(=O)c3ccccc23)cc1)N1CCC(c2ccccc2)C1 (centres unmarked) [Example 69, 4-(4-Oxo-3,4-dihydrophthalazin-1-yl)phenyl 3-phenylpyrrolidine-1-carboxylate]",1000 to 50000 nM,101 to 1000 nM,–
"COc1ccc2c(c1)CN(C(=O)Oc1ccc(-c3n[nH]c(=O)c4ccccc34)cc1)C2 [Example 70, 4-(4-Oxo-3,4-dihydrophthalazin-1-yl)phenyl 5-methoxyisoindoline-2-carboxylate]",1000 to 50000 nM,0.1 to 100 nM,–
"O=C(Oc1ccc(-c2n[nH]c(=O)c3ccccc23)cc1)N1Cc2ccc(F)cc2C1 [Example 71, 4-(4-Oxo-3,4-dihydrophthalazin-1-yl)phenyl 5-fluoroisoindoline-2-carboxylate]",1000 to 50000 nM,0.1 to 100 nM,–
"CN1CCN(Cc2ccc3c(c2)CN(C(=O)Oc2ccc(-c4n[nH]c(=O)c5ccccc45)cc2)C3)CC1 [Example 72, 4-(4-Oxo-3,4-dihydrophthalazin-1-yl)phenyl 5-((4-methylpiperazin-1-yl)methyl)isoindoline-2-carboxylate]",–,0.1 to 100 nM,101 to 1000 nM
"O=c1[nH]nc(-c2ccc(Nc3ncc(-c4ccccc4)o3)cc2)c2ccccc12 [Example 73, 4-(4-((5-Phenyloxazol-2-yl)amino)phenyl)phthalazin-1 (2H)-one]",101 to 1000 nM,0.1 to 100 nM,–
"O=c1[nH]nc(-c2ccc(Nc3nc(-c4ccccc4)cs3)cc2)c2ccccc12 [Example 74, 4-(4-((4-Phenylthiazol-2-yl)amino)phenyl)phthalazin-1(2H)-one]",1000 to 50000 nM,0.1 to 100 nM,–
"O=C(Nc1ccc(-c2n[nH]c(=O)c3ccccc23)cc1)N1CCc2ccccc21 [Example 76, N-(4-(4-Oxo-3,4-dihydrophthalazin-1-yl)phenyl)indoline-1-carboxamide]",0.1 to 100 nM,0.1 to 100 nM,–
"O=C(Nc1ccc(-c2c[nH]c(=O)c3ccccc23)cc1)N1CCc2ccccc21 [Example 77, N-(4-(1-Oxo-1,2-dihydroisoquinolin-4-yl)phenyl)indoline-1-carboxamide]",0.1 to 100 nM,0.1 to 100 nM,–
"O=C(Cc1ccc(-c2n[nH]c(=O)c3ccccc23)cc1)N[C@@H]1CCc2ccccc21 [Example 81, (R)—N-(2,3-Dihydro-1H-inden-1-yl)-2-(4-(4-oxo-3,4-dihydrophthalazin-1-yl)phenyl)acetamide]",1000 to 50000 nM,101 to 1000 nM,–
"O=C(Cc1ccc(-c2n[nH]c(=O)c3ccccc23)cc1)N[C@H]1CCc2ccccc21 [Example 82, (S)—N-(2,3-Dihydro-1H-inden-1-yl)-2-(4-(4-oxo-3,4-dihydrophthalazin-1-yl)phenyl)acetamide]",1000 to 50000 nM,101 to 1000 nM,–
"O=C(Cc1ccc(-c2n[nH]c(=O)c3ccccc23)cc1)N1CCc2ccc(OCc3ccccc3)cc21 [Example 83, 4-(4-(2-(6-(Benzyloxy)indolin-1-yl)-2-oxoethyl)phenyl)phthalazin-1(2H)-one]",0.1 to 100 nM,0.1 to 100 nM,–
"Cn1nc(C(=O)Nc2ccc(-c3n[nH]c(=O)c4ccccc34)cc2)c2ccccc21 [Example 98, 1-methyl-N-[4-(4-oxo-3,4-dihydrophthalazin-1-yl)phenyl]-1H-indazole-3-carboxamide]",0.1 to 100 nM,0.1 to 100 nM,–
"O=C(Nc1ccc(-c2n[nH]c(=O)c3ccccc23)cc1)c1nn(Cc2ccccc2)c2ccccc12 [Example 99, 1-benzyl-N-[4-(4-oxo-3,4-dihydrophthalazin-1-yl)phenyl]-1H-indazole-3-carboxamide]",0.1 to 100 nM,0.1 to 100 nM,–
